In PubChem BioAssay AID1259407 (Chemical Carcinogenesis Research Information System (CCRIS), 2018):
Active and inactive are the calls of the source. The rule behind the calls is not given here.

System: CCRIS mutagenicity, Ames/micronucleus/aberration tests
Assay: CCRIS mutagenicity studies
[1] = Test System: AMES SALMONELLA TYPHIMURIUM, Strain/Indicator: TA98, Metabolic Activation: NONE, Method: PREINCUBATION
[2] = Test System: AMES SALMONELLA TYPHIMURIUM, Strain/Indicator: TA100, Metabolic Activation: NONE, Method: PREINCUBATION
[3] = Test System: AMES SALMONELLA TYPHIMURIUM, Strain/Indicator: TA1535, Metabolic Activation: NONE, Method: PREINCUBATION
[4] = Test System: AMES SALMONELLA TYPHIMURIUM, Strain/Indicator: TA1537, Metabolic Activation: NONE, Method: PREINCUBATION

With `CC(=O)c1cc(NC(=O)NC(C)(C)C)ccc1OCC(O)CNC(C)(C)C` (centres undefined) the mutagenic call [1] was “inactive; negative”, the mutagenic call (Test System: AMES SALMONELLA TYPHIMURIUM, Strain/Indicator: TA98, Metabolic Activation: RAT, LIVER, S-9, PHENOBARBITAL AND 5,6-BENZOFLAVONE (10 OR 50 µL/PLATE), Method: PREINCUBATION) was “inactive; negative” and the mutagenic call [2] was “inactive; negative”. For the same compound, the mutagenic call (Test System: AMES SALMONELLA TYPHIMURIUM, Strain/Indicator: TA100, Metabolic Activation: RAT, LIVER, S-9, PHENOBARBITAL AND 5,6-BENZOFLAVONE (10 OR 50 µL/PLATE), Method: PREINCUBATION) was “inactive; negative”, the mutagenic call [3] was “inactive; negative” and the mutagenic call (Test System: AMES SALMONELLA TYPHIMURIUM, Strain/Indicator: TA1535, Metabolic Activation: RAT, LIVER, S-9, PHENOBARBITAL AND 5,6-BENZOFLAVONE (10 OR 50 µL/PLATE), Method: PREINCUBATION) was “inactive; negative”. For the same compound, the mutagenic call [4] was “inactive; negative”, the mutagenic call (Test System: AMES SALMONELLA TYPHIMURIUM, Strain/Indicator: TA1537, Metabolic Activation: RAT, LIVER, S-9, PHENOBARBITAL AND 5,6-BENZOFLAVONE (10 OR 50 µL/PLATE), Method: PREINCUBATION) was “inactive; negative” and the mutagenic call (Test System: E. COLI, Strain/Indicator: WP2 UVRA, Metabolic Activation: NONE, Method: PREINCUBATION) was “inactive; negative”. For the same compound, the mutagenic call (Test System: E. COLI, Strain/Indicator: WP2 UVRA, Metabolic Activation: RAT, LIVER, S-9, PHENOBARBITAL AND 5,6-BENZOFLAVONE (10 OR 50 µL/PLATE), Method: PREINCUBATION) was “inactive; negative”.

With `Nc1cc(Cl)ccc1[N+](=O)[O-]` the mutagenic call (End Point: IN VITRO CHROMOSOMAL ABERRATIONS, Test System: CHL CELLS, Metabolic Activation: RAT, LIVER, S-9, SODIUM PHENOBARBITAL AND 5,6-BENZOFLAVONE) was “active; positive (structural changes); authors report equivocal results for ploidy chang”, the mutagenic call [1] was “active; positive” and the mutagenic call (Test System: AMES SALMONELLA TYPHIMURIUM, Strain/Indicator: TA98, Metabolic Activation: RAT LIVER S-9, PHENOBARBITAL AND BETA-NAPHTHOFLAVONE, Method: PREINCUBATION) was “active; positive”. For the same compound, the mutagenic call [2] was “inactive; negative”, the mutagenic call (Test System: AMES SALMONELLA TYPHIMURIUM, Strain/Indicator: TA100, Metabolic Activation: RAT LIVER S-9, PHENOBARBITAL AND BETA-NAPHTHOFLAVONE, Method: PREINCUBATION) was “inactive; negative” and the mutagenic call [3] was “inactive; negative”. The mutagenic call (Test System: AMES SALMONELLA TYPHIMURIUM, Strain/Indicator: TA1535, Metabolic Activation: RAT LIVER S-9, PHENOBARBITAL AND BETA-NAPHTHOFLAVONE, Method: PREINCUBATION) was “inactive; negative”, the mutagenic call [4] was “inactive; negative” and the mutagenic call (Test System: AMES SALMONELLA TYPHIMURIUM, Strain/Indicator: TA1537, Metabolic Activation: RAT LIVER S-9, PHENOBARBITAL AND BETA-NAPHTHOFLAVONE, Method: PREINCUBATION) was “inactive; negative”. For the same compound, the mutagenic call (Test System: E.COLI, Strain/Indicator: WP2UVRA, Metabolic Activation: NONE, Method: PREINCUBATION) was “inactive; negative” and the mutagenic call (Test System: E.COLI, Strain/Indicator: WP2UVRA, Metabolic Activation: RAT LIVER S-9, PHENOBARBITAL AND BETA-NAPHTHOFLAVONE, Method: PREINCUBATION) was “inactive; negative”.

For `Cc1cccn2c1nc1ccc(N)nc12`, the mutagenic call (Test System: AMES SALMONELLA TYPHIMURIUM, Strain/Indicator: TA98, Metabolic Activation: MOUSE, LIVER, MICROSOMES, TCDD, Method: STANDARD PLATE) was “active; positive”, the mutagenic call (Test System: AMES SALMONELLA TYPHIMURIUM, Strain/Indicator: TA98, Metabolic Activation: MOUSE, LIVER, MICROSOMES, Method: STANDARD PLATE) was “active; positive” and the mutagenic call (Test System: AMES SALMONELLA TYPHIMURIUM, Strain/Indicator: TA98, Metabolic Activation: RAT LIVER, CYTOSOL, AROCLOR 1254, Method: STANDARD PLATE) was “inactive; negative”. The mutagenic call (Test System: AMES SALMONELLA TYPHIMURIUM, Strain/Indicator: TA98, Metabolic Activation: RAT LIVER, MICROSOMES, AROCLOR 1254, Method: STANDARD PLATE) was “active; positive”, the mutagenic call (Test System: AMES SALMONELLA TYPHIMURIUM, Strain/Indicator: TA98, Metabolic Activation: RAT, LIVER, MICROSOMES, 1-METHYLCHRYSENE, Method: PREINCUBATION) was “active; positive” and the mutagenic call (Test System: AMES SALMONELLA TYPHIMURIUM, Strain/Indicator: TA98, Metabolic Activation: RAT, LIVER, MICROSOMES, 2-METHYLCHRYSENE, Method: PREINCUBATION) was “active; positive”. The mutagenic call (Test System: AMES SALMONELLA TYPHIMURIUM, Strain/Indicator: TA98, Metabolic Activation: RAT, LIVER, MICROSOMES, 3-METHYLCHRYSENE, Method: PREINCUBATION) was “active; positive”, the mutagenic call (Test System: AMES SALMONELLA TYPHIMURIUM, Strain/Indicator: TA98, Metabolic Activation: RAT, LIVER, MICROSOMES, 4-METHYLCHRYSENE, Method: PREINCUBATION) was “active; positive” and the mutagenic call (Test System: AMES SALMONELLA TYPHIMURIUM, Strain/Indicator: TA98, Metabolic Activation: RAT, LIVER, MICROSOMES, 5-METHYLCHRYSENE, Method: PREINCUBATION) was “active; positive”. For the same compound, the mutagenic call (Test System: AMES SALMONELLA TYPHIMURIUM, Strain/Indicator: TA98, Metabolic Activation: RAT, LIVER, MICROSOMES, 6-AMINOCHRYSENE, Method: PREINCUBATION) was “active; positive”, the mutagenic call (Test System: AMES SALMONELLA TYPHIMURIUM, Strain/Indicator: TA98, Metabolic Activation: RAT, LIVER, MICROSOMES, 6-METHYLCHRYSENE, Method: PREINCUBATION) was “active; positive” and the mutagenic call (Test System: AMES SALMONELLA TYPHIMURIUM, Strain/Indicator: TA98, Metabolic Activation: RAT, LIVER, MICROSOMES, BENZO[B]CHRYSENE, Method: PREINCUBATION) was “active; positive”. For the same compound, the mutagenic call (Test System: AMES SALMONELLA TYPHIMURIUM, Strain/Indicator: TA98, Metabolic Activation: RAT, LIVER, MICROSOMES, BENZO[C]CHRYSENE, Method: PREINCUBATION) was “active; positive”, the mutagenic call (Test System: AMES SALMONELLA TYPHIMURIUM, Strain/Indicator: TA98, Metabolic Activation: RAT, LIVER, S-9, AROCLOR 1254, Method: PREINCUBATION) was “active; positive” and the mutagenic call (Test System: AMES SALMONELLA TYPHIMURIUM, Strain/Indicator: TA100, Metabolic Activation: RAT, LIVER, S-9, AROCLOR 1254, Method: PREINCUBATION) was “active; positive”. The mutagenic call (Test System: AMES SALMONELLA TYPHIMURIUM, Strain/Indicator: TA1538, Metabolic Activation: RAT, LIVER, MICROSOMES, 2-ACETYLAMINOFLUORENE, Method: STANDARD PLATE) was “active; positive”, the mutagenic call (Test System: AMES SALMONELLA TYPHIMURIUM, Strain/Indicator: TA1538, Metabolic Activation: RAT, LIVER, MICROSOMES, 4-ACETYLAMINOFLUORENE, Method: STANDARD PLATE) was “active; positive” and the mutagenic call (Test System: AMES SALMONELLA TYPHIMURIUM, Strain/Indicator: TA1538, Metabolic Activation: RAT, LIVER, MICROSOMES, Method: STANDARD PLATE) was “active; positive”. The mutagenic call (Test System: AMES SALMONELLA TYPHIMURIUM, Strain/Indicator: YG1012, Metabolic Activation: RAT, LIVER, S-9, PHENOBARBITAL AND 5,6-BENZOFLAVONE, Method: PREINCUBATION) was “active; positive”, the mutagenic call (Test System: AMES SALMONELLA TYPHIMURIUM, Strain/Indicator: YG1019, Metabolic Activation: RAT LIVER S-9, AROCLOR, Method: PREINCUBATION) was “active; positive” and the mutagenic call (Test System: AMES SALMONELLA TYPHIMURIUM, Strain/Indicator: YG1019, Metabolic Activation: RAT, LIVER, S-9, PHENOBARBITAL AND 5,6-BENZOFLAVONE, Method: PREINCUBATION) was “active; positive”. For the same compound, the mutagenic call (Test System: AMES SALMONELLA TYPHIMURIUM, Strain/Indicator: YG1020, Metabolic Activation: RAT, LIVER, S-9, PHENOBARBITAL AND 5,6-BENZOFLAVONE, Method: PREINCUBATION) was “active; positive”, the mutagenic call (Test System: AMES SALMONELLA TYPHIMURIUM, Strain/Indicator: YG1024, Metabolic Activation: RAT, LIVER, S-9, PHENOBARBITAL AND 5,6-BENZOFLAVONE, Method: PREINCUBATION) was “active; positive” and the mutagenic call (Test System: AMES SALMONELLA TYPHIMURIUM, Strain/Indicator: YG1025, Metabolic Activation: RAT, LIVER, S-9, PHENOBARBITAL AND 5,6-BENZOFLAVONE, Method: PREINCUBATION) was “active; positive”. The mutagenic call (Test System: AMES SALMONELLA TYPHIMURIUM, Strain/Indicator: YG1029, Metabolic Activation: RAT, LIVER, S-9, PHENOBARBITAL AND 5,6-BENZOFLAVONE, Method: PREINCUBATION) was “active; positive”, the mutagenic call (Test System: UDS HUMAN HEPATOCYTES, Strain/Indicator: THY INCORP, Metabolic Activation: NONE, Method: AUTORADIOGRAPHY) was “active; positive” and the mutagenic call (Test System: UDS MOUSE HEPATOCYTES, Strain/Indicator: THY INCORP, Metabolic Activation: NONE, Method: AUTORADIOGRAPHY) was “active; positive”. For the same compound, the mutagenic call (Test System: UDS RAT HEPATOCYTES, Strain/Indicator: THY INCORP, Metabolic Activation: NONE, Method: AUTORADIOGRAPHY) was “inactive; negative”.
